Here are results for 4 molecules from ChEMBL document CHEMBL1828607, “N-Heteroaryl glycinamides and glycinamines as potent NPY5 antagonists” (Bioorg Med Chem Lett, 2011).

Converted amounts (≈) assume the structure as drawn.

Data set [1] is described as follows: in vivo. Particulars: Sprague-Dawley, rat, brain/plasma, po, 10 mg/kg.
Description: Ratio of drug level in brain to plasma in femoral artery cannulated Sprague-Dawley rat at 10 mg/kg, po after 1 hr by LC/MS/MS method
Data set [2] can be described thus: in vivo. The note with it: Sprague-Dawley, rat, plasma, po, 10 mg/kg.
Description: Drug level in femoral artery cannulated Sprague-Dawley rat plasma at 10 mg/kg, po after 1 hr by LC/MS/MS method
Data set [3] in a line: in vivo. Particulars: Sprague-Dawley, rat, brain, po, 10 mg/kg.
Description: Drug level in femoral artery cannulated Sprague-Dawley rat brain at 10 mg/kg, po after 1 hr by LC/MS/MS method
The nature of data set [4]: physchem. Particulars: buffer, pH 7.4.
Description: Solubility of the compound at pH 7.4
A short description of data set [5]: physchem. Particulars: octanol/water.
Description: Lipophilicity, log D of the compound

Turning to `CC(C)S(=O)(=O)NC[C@H]1CC[C@H](NC(=O)CN2CCOc3cc(Cl)ccc32)CC1`, the Kp at 1 h in “in vivo [1]” was 0.1. In addition, the results for the concentration at 1 h in the data set “in vivo [2]” and in the data set “in vivo [3]” were 430 nM and 43 nM, respectively.

Turning to `CC(C)S(=O)(=O)NC[C@H]1CC[C@H](NC(=O)CN2C(=O)CCc3cc(Cl)ccc32)CC1`, the Kp at 1 h in “in vivo [1]” turned out to be 0.02. The figures for the concentration at 1 h in the data set “in vivo [2]” and in the data set “in vivo [3]” were 879 nM and 16 nM, respectively.

Molecule `CC(C)S(=O)(=O)NC[C@H]1CC[C@H](NC(=O)CN2C(=O)COc3cc(Cl)ccc32)CC1` gave a Kp at 1 h in “in vivo [1]” of 0.07. For the same molecule, the figures for the concentration at 1 h in “in vivo [2]” and in “in vivo [3]” were 481 nM and 33 nM, respectively.

In turn, `CN(C)S(=O)(=O)NC[C@H]1CC[C@H](NC(=O)CN2C(=O)CC(C)(C)Sc3ccccc32)CC1` came in with a concentration at 1 h in the data set “in vivo [2]” of 1.5 nM. Moreover, the concentration in solution in “physchem [4]” (solubility) came to 440 µg/mL (≈ 912 µM). Also, in the data set “physchem [5]”, the logD was determined as 2.4.

Broadly, the Kp is tissue or fluid exposure divided by exposure in the circulation. A word on the solubility: it is the concentration that dissolves in the medium under given conditions. For orientation: logD means the decadic logarithm of the distribution of all forms, ionised or not, between an organic phase and buffer at a given pH. A higher logD goes with a more lipophilic compound.
